Assays:
Trypsin = conditions: read-out: Trypsin estimated IC50, 30 minute preincubation with 100 nM Kunitz domain
Description: (§1) Cloning into this vector placed a His-tag at the C-terminus of the protein that was used to facilitate purification.
(§2) For protein production, E. coli containing the expression vector were grown in media containing ampicillin and 2% glucose to an OD600 of 0.5. At this time the cells were spun down and the media removed. The cell pellet was then resuspended in fresh media containing ampicillin and 1 mM IPTG to induce expression of the protein. The cells were allowed to grow with shaking overnight at 30° C. before harvesting by centrifugation. Periplasmic extracts were then prepared and the MBP-Kunitz fusion purified using immobilized metal ion chromatography.

MTSP-1 = MTSP-1 (Homo sapiens, UniProt Q9Y5Y6); conditions: 30 minute preincubation with 100 nM Kunitz domain
MTSP-1, sequence (Q9Y5Y6 whole entry, species assumed, the tested form may be a part): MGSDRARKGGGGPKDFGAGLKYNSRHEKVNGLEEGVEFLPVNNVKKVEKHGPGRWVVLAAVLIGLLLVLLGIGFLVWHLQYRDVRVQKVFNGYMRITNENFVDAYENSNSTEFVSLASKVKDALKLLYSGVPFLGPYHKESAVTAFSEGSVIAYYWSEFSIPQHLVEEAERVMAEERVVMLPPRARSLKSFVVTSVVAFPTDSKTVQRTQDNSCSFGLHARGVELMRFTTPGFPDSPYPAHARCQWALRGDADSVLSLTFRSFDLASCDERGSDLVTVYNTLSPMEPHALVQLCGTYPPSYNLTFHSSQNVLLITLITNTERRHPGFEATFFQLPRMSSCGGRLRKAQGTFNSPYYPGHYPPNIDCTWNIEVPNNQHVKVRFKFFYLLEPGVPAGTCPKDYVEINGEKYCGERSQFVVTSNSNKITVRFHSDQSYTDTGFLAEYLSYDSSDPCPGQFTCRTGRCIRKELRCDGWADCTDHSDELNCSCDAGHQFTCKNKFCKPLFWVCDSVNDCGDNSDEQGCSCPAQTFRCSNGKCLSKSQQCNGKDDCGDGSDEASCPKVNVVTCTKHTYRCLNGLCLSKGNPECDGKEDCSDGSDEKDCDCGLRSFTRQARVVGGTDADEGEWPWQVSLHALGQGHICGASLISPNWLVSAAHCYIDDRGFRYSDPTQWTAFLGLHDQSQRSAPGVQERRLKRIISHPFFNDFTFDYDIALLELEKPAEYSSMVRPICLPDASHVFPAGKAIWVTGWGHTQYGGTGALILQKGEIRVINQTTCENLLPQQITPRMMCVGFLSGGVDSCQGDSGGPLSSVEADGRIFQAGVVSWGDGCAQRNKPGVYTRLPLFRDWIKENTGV
Description: as §1, §2

ET-2 = conditions: for ET-2 estimated IC50: 30 minute preincubation with 100 nM Kunitz domain; for IC50: read-out: ET-2 estimated IC50, 30 minute preincubation with 100 nM Kunitz domain
ET-2, sequence (Q9BYE2 326-559 limits assumed): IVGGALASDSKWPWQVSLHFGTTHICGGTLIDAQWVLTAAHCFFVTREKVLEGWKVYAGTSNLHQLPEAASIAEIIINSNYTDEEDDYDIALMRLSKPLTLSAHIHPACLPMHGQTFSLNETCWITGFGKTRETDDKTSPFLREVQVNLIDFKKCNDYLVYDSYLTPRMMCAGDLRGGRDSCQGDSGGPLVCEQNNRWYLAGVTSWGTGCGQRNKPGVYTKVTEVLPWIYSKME
Description: as §1, §2

fXa = fXa (Homo sapiens, UniProt P00742); conditions: 30 minute preincubation with 100 nM Kunitz domain
fXa, sequence (P00742 235-488 limits assumed): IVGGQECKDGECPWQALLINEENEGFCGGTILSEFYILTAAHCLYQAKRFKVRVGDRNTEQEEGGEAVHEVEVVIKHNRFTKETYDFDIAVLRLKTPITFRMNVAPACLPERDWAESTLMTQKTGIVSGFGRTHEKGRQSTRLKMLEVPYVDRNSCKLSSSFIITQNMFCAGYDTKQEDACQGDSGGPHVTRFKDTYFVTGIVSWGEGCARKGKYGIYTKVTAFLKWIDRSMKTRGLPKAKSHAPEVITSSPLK
fXa, sequence (P00742 41-179 partner limits assumed): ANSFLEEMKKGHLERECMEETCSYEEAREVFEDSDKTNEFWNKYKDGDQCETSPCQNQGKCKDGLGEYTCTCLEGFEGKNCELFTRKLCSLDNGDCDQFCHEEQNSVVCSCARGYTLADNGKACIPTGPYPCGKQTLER
Description: as §1, §2

TnIV = TnIV (Homo sapiens, UniProt P35030); conditions: 30 minute preincubation with 100 nM Kunitz domain
TnIV, sequence (P35030 whole entry, the tested form may be a part): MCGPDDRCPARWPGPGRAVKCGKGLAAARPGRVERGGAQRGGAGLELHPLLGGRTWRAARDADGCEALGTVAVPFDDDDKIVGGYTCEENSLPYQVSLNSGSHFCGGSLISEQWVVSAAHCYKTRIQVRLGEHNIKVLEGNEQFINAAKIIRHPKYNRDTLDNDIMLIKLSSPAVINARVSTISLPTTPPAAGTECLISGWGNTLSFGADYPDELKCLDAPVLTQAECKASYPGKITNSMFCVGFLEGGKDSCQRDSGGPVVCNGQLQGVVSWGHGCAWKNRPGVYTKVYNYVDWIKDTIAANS
Description: as §1, §2

In the case of “MAAEMHSFCAFKADKGECRASVQRFFFNIFTRQCEEFNYGGCGGNQNRFESLEECKKMCTRDSASSASGDFD [MBP-D12]”, the IC50 (Trypsin) is reported as ~30 nM, the “MTSP-1 estimated IC50” value (MTSP-1) is reported as “IA (IA = <5% inhibition @ 100 nM)” and the “ET-2 estimated IC50” value (ET-2) is reported as “IA (IA = <5% inhibition @ 100 nM)”.

“MAAEMHSFCAFKADKGFCRAMDIRFFFNIFTRQCEEFIYGGCGGNQNRFESLEECKKMCTRDSASSASGDFD [MBP-1B2]” was tested, and the “fXa estimated IC50” value (fXa) was “IA (IA = <5% inhibition @ 100 nM)”, the IC50 (Trypsin) was < 10 nM and the “MTSP-1 estimated IC50” value (MTSP-1) was “IA (IA = <5% inhibition @ 100 nM)”. The “ET-2 estimated IC50” value (ET-2) was “IA (IA = <5% inhibition @ 100 nM)”.

For “MAAEMHSFCAFKADKGTCRGDFPRFFFNIFTRQCEEFHYGGCGGNQNRFESLEECKKMCTRDSASSASGDFD [MBP-1E9]”, the “fXa estimated IC50” value (fXa) was “IA (IA = <5% inhibition @ 100 nM)”, the IC50 (Trypsin) was ≥ 1000 nM and the “MTSP-1 estimated IC50” value (MTSP-1) was “IA (IA = <5% inhibition @ 100 nM)”. The “ET-2 estimated IC50” value (ET-2) was “IA (IA = <5% inhibition @ 100 nM)”.

For “MAAEMHSFCAFKADPGPCRAIMTRFFFNIFTRQCEEFRYGGCLGNQNRFESLEECKKMCTRDSASSASGDFD [MBP-1G11]”, the IC50 (Trypsin) was < 10 nM, the “MTSP-1 estimated IC50” value (MTSP-1) was “IA (IA = <5% inhibition @ 100 nM)” and the IC50 (ET-2) was ≥ 1000 nM.

For “MAAEMHSFCAFKADPGPCRAMFNRFFFNIFTRQCEEFNYGGCSGNQNRFESLEECKKMCTRDSASSASGDFD [MBP-1E6]”, the “fXa estimated IC50” value (fXa) was “IA (IA = <5% inhibition @ 100 nM)”, the IC50 (Trypsin) was < 10 nM and the IC50 (ET-2) was ~400 nM.

With “MAAEMHSFCAFKADPGQCRAYYRRFFFNIFTRQCEEFVYGGCMGNQNRFESLEECKKMCTRDSASSASGDFD [MBP-1G2]” the IC50 (Trypsin) was < 10 nM, the “MTSP-1 estimated IC50” value (MTSP-1) was “IA (IA = <5% inhibition @ 100 nM)” and the IC50 (ET-2) was ~300 nM.

In the case of “MAAEMHSFCAFKADQGPCRAAISRFFFNIFTRQCEEFVYGGCEGNQNRFESLEECKKMCTRDSASSASGDFD [MBP-1D9]”, the “fXa estimated IC50” value (fXa) is reported as “IA (IA = <5% inhibition @ 100 nM)”, the IC50 (Trypsin) is reported as ~50 nM and the “MTSP-1 estimated IC50” value (MTSP-1) is reported as “IA (IA = <5% inhibition @ 100 nM)”. The IC50 (ET-2) was ≥ 1000 nM.

With “MAAEMHSFCAFKADQGPCRASVHRFFFNIFTRQCEEFFYGGCLGNQNRFESLEECKKMCTRDSASSASGDFD [MBP-1F8]” the “fXa estimated IC50” value (fXa) was “IA (IA = <5% inhibition @ 100 nM)”, the IC50 (Trypsin) was < 10 nM and the “MTSP-1 estimated IC50” value (MTSP-1) was “IA (IA = <5% inhibition @ 100 nM)”. For the same sequence, the “ET-2 estimated IC50” value (ET-2) was “IA (IA = <5% inhibition @ 100 nM)” and the “TnIV estimated IC50” value (TnIV) was “IA (IA = <5% inhibition @ 100 nM)”.

For “MAAEMHSFCAFKADRGPCRADFHRFFFNIFTRQCEEFHYGGCGGNQNRFESLEECKKMCTRDSASSASGDFD [MBP-1A10]”, the “fXa estimated IC50” value (fXa) was “IA (IA = <5% inhibition @ 100 nM)”, the IC50 (Trypsin) was < 10 nM and the “ET-2 estimated IC50” value (ET-2) was “IA (IA = <5% inhibition @ 100 nM)”.

With “MAAEMHSFCAFKADRGPCRAYFDRFFFNIFTRQGEEFIYGGCMGNQNRFESLEECKKMCTRDSASSASGDFD [MBP-1G8]” the IC50 (Trypsin) was ~10 nM, the “MTSP-1 estimated IC50” value (MTSP-1) was “IA (IA = <5% inhibition @ 100 nM)” and the “ET-2 estimated IC50” value (ET-2) was “IA (IA = <5% inhibition @ 100 nM)”.

In the case of “MAAEMHSFCAFKADTGPCRADIKRFFFNIFTRQCEEFRYGGCMGNQNRFESLEECKKMCTRDSASSASGDFD [MBP-1G9]”, the “fXa estimated IC50” value (fXa) is reported as “IA (IA = <5% inhibition @ 100 nM)”, the IC50 (Trypsin) is reported as ~60 nM and the “ET-2 estimated IC50” value (ET-2) is reported as “IA (IA = <5% inhibition @ 100 nM)”. For the same sequence, the “TnIV estimated IC50” value (TnIV) was “IA (IA = <5% inhibition @ 100 nM)”.

For “MAAEMHSFCAFKADTGTCRAAMVRFFFNIFTRQCEEFTYGGCEGNQNRFESLEECKKMCTRDSASSASGDFD [MBP-1H8]”, the “fXa estimated IC50” value (fXa) was “IA (IA = <5% inhibition @ 100 nM)”, the IC50 (Trypsin) was ~30 nM and the “MTSP-1 estimated IC50” value (MTSP-1) was “IA (IA = <5% inhibition @ 100 nM)”. For the same sequence, the “ET-2 estimated IC50” value (ET-2) was “IA (IA = <5% inhibition @ 100 nM)” and the “TnIV estimated IC50” value (TnIV) was “IA (IA = <5% inhibition @ 100 nM)”.

— patent US20050164945A1, “Endotheliase-1 ligands” (priority 2003, published 2005)
